How the values were obtained:
Assay type in all cases: functional
Settings in all cases: read-out: IZ
Helicobacter pylori [1] = assay: Antibacterial activity against metronidazole-sensitive Helicobacter pylori at 32 ug/disk after 3 to 5 days by filter paper disk diffusion method
Helicobacter pylori [2] = assay: Antibacterial activity against metronidazole-sensitive Helicobacter pylori at 8 ug/disk after 3 to 5 days by filter paper disk diffusion method
Helicobacter pylori [3] = assay: Antibacterial activity against metronidazole-resistant Helicobacter pylori at 32 ug/disk after 3 to 5 days by filter paper disk diffusion method
Helicobacter pylori [4] = assay: Antibacterial activity against metronidazole-resistant Helicobacter pylori at 8 ug/disk after 3 to 5 days by filter paper disk diffusion method
Helicobacter pylori [5] = assay: Antibacterial activity against metronidazole-sensitive Helicobacter pylori at 16 ug/disk after 3 to 5 days by filter paper disk diffusion method
Helicobacter pylori [6] = assay: Antibacterial activity against metronidazole-resistant Helicobacter pylori at 16 ug/disk after 3 to 5 days by filter paper disk diffusion method
Helicobacter pylori [7] = assay: Antibacterial activity against Helicobacter pylori clinical isolates at 32 ug/disk after 3 to 5 days by filter paper disk diffusion method
Helicobacter pylori [8] = assay: Antibacterial activity against Helicobacter pylori clinical isolates at 4 ug/disk after 3 to 5 days by filter paper disk diffusion method
Helicobacter pylori [9] = assay: Antibacterial activity against Helicobacter pylori clinical isolates at 1 ug/disk after 3 to 5 days by filter paper disk diffusion method
Helicobacter pylori [10] = assay: Antibacterial activity against Helicobacter pylori clinical isolates at 8 ug/disk after 3 to 5 days by filter paper disk diffusion method
Helicobacter pylori [11] = assay: Antibacterial activity against Helicobacter pylori clinical isolates at 0.5 ug/disk after 3 to 5 days by filter paper disk diffusion method
Helicobacter pylori [12] = assay: Antibacterial activity against Helicobacter pylori clinical isolates at 2 ug/disk after 3 to 5 days by filter paper disk diffusion method
Helicobacter pylori [13] = assay: Antibacterial activity against Helicobacter pylori clinical isolates at 16 ug/disk after 3 to 5 days by filter paper disk diffusion method

SMILES	zone of inhibition at 32 µg/disc (Helicobacter pylori [1])	zone of inhibition at 8 µg/disc (Helicobacter pylori [2])	zone of inhibition at 32 µg/disc (Helicobacter pylori [3])	zone of inhibition at 8 µg/disc (Helicobacter pylori [4])	zone of inhibition at 16 µg/disc (Helicobacter pylori [5])	zone of inhibition at 16 µg/disc (Helicobacter pylori [6])	zone of inhibition at 32 µg/disc (Helicobacter pylori [7])	zone of inhibition at 4 µg/disc (Helicobacter pylori [8])	zone of inhibition at 1 µg/disc (Helicobacter pylori [9])	zone of inhibition at 8 µg/disc (Helicobacter pylori [10])	zone of inhibition at 0.5 µg/disc (Helicobacter pylori [11])	zone of inhibition at 2 µg/disc (Helicobacter pylori [12])	zone of inhibition at 16 µg/disc (Helicobacter pylori [13])
O=[N+]([O-])c1ccc(-c2nnc(N3CCCCC3)s2)s1	6 mm	6 mm	6 mm	6 mm	6 mm	6 mm	–	–	–	–	–	–	–
O=[N+]([O-])c1ccc(-c2nnc(N3CCOCC3)s2)s1	15 mm	6 mm	6 mm	6 mm	6 mm	6 mm	–	–	–	–	–	–	–
O=[N+]([O-])c1ccc(-c2nnc(N3CCOCC3)s2)o1	42 mm	33 mm	48 mm	30 mm	36 mm	33 mm	40 mm	28.4 mm	17.5 mm	32.1 mm	10.8 mm	23.7 mm	36.6 mm
O=[N+]([O-])c1ccc(-c2nnc(N3CCCCC3)s2)o1	35 mm	28 mm	34 mm	27 mm	32 mm	32 mm	36.5 mm	27.4 mm	19 mm	30.5 mm	13.7 mm	24.9 mm	33.5 mm
Cn1c([N+](=O)[O-])cnc1-c1nnc(N2CCOCC2)s1	32 mm	25 mm	33 mm	26 mm	31 mm	31 mm	33.5 mm	22.5 mm	19.4 mm	27.6 mm	13.7 mm	21.3 mm	30.6 mm
Cn1c([N+](=O)[O-])cnc1-c1nnc(N2CC[S+]([O-])CC2)s1	25 mm	6 mm	21 mm	6 mm	19 mm	15 mm	–	–	–	–	–	–	–
O=[N+]([O-])c1ccc(-c2nnc(N3CCS(=O)(=O)CC3)s2)s1	16 mm	6 mm	6 mm	6 mm	6 mm	6 mm	–	–	–	–	–	–	–
Cn1c([N+](=O)[O-])cnc1-c1nnc(N2CCSCC2)s1	34 mm	27 mm	30 mm	24 mm	31 mm	27 mm	32.4 mm	23.7 mm	15.6 mm	27.4 mm	9.9 mm	20 mm	30.4 mm

— ChEMBL document CHEMBL1140970, “Synthesis and in vitro anti-Helicobacter pylori activity of N-[5-(5-nitro-2-heteroaryl)-1,3,4-thiadiazol-2-yl]thiomorpholines and related compounds” (2008)
